{"source": "patent US12161694B2", "about": "“Methods and compositions for regulating innate lymphoid cell inflammatory responses” (The Broad Institute, Inc., priority 2017, dated 2024)", "test_system": "lung-resident ILCs", "test": "Droplet-based scRNA-seq of lung-resident ILCs after in vivo treatment", "parameters": "species or system mouse", "conditions": "PBS, NMU, IL-25, combination", "from_the_text": "Mice and in vivo ILC activation. C57Bl/6J mice were purchased from the Jackson Laboratory. Nmur1-LacZ reporter mice with a LacZ cassette knocked into the Nmur1 locus were rederived from Nmur1^tm1.1(KOMP)Vleg sperm obtained from the trans-NIH Knock-Out Mouse Project (KOMP) Repository. Mice were housed under specific-pathogen-free conditions. For experiments, mice were matched for sex and age, and most mice were 6-10 weeks old. Where indicated, mice were anesthetized with Isoflurane and treated intranasally with the indicated stimuli (500 ng IL-25, 500 ng IL-33, or 20 μg Neuromedin U) daily for three consecutive days. The total administered volume was 20 μl for all conditions. Mice were randomly assigned to treatment groups after matching for sex and age. […]\nFluorescence-activated cell sorting of innate lymphoid cells. […]\nAnalysis of droplet-based scRNA-Seq data: Initial QC. Gene counts were obtained by aligning reads to the mm10 genome using CellRanger software (10× Genomics), with the genome reannotated at the 3′ end of Nmur1 (see main text). […]\nAnalysis of droplet-based scRNA-Seq samples: Signature scores. Applicants calculated signature scores as the log of the geometric mean of the TPX values for the genes in the signature. […] Then the signature score for that cell is calculated as log(IIg(xg+1)^1/m) which is equivalent to the arithmetic mean of the log TPX values. […]", "note": "Entries after “also recorded” stand apart in the source; their conditions may differ. Where no end group is shown, it is not given here."}
{"substance": "Neuromedin U (FRVDEEFQSPFASQSRGYFLFRPRN-NH2; listed as Homo sapiens) [NMU, neuropeptide ligand of Nmur1 (US Biological)]", "values": [{"measurement": "transcriptional profiles of ILCs (tSNE localization)", "result": "largely localized with those from control mice; also recorded: transcriptionally similar to control ILCs"}]}
